From patent publication US10889748B2, “Process for preparing dibenzylamine quaternary ammonium salt high-temperature resistant corrosion inhibitor and applications thereof” (Southwest Petroleum University, priority 2018, dated 2021) come the findings set out here.

A short description of data set [1]: Determination of water solubility of corrosion inhibitors in 20% hydrochloric acid solution. The data set is classed as physicochemical. To be noted: 0.1 g corrosion inhibitor in 200 mL of 20% hydrochloric acid solution. How it is done: (§1) The process is as follows: weigh […] of the corrosion inhibitor of the present invention, and dissolve in 200 mL of 20% hydrochloric acid solution, respectively, stir and observe its dissolution. Prepare 20% hydrochloric acid solution system adding with iron ion stabilizer citric acid, clay stabilizer potassium chloride and discharge aiding agent OP-10 or fluorocarbon surfactant, respectively, and then weigh 0.1 g of the corrosion inhibitor of the present invention and add them to the 20% hydrochloric acid solution system, to observe the compatibility.

Data set [2] is described as follows: Compatibility with 20% hydrochloric acid system containing iron ion stabilizer, clay stabilizer and discharge aiding agent. The data set is classed as physicochemical. To be noted: 0.1 g in 20% hydrochloric acid system with citric acid, potassium chloride and OP-10 or fluorocarbon surfactant; 90° C. How it is done: as §1, with “The water solubility of the corrosion inhibitor prepared by Embodiments 1 to 4 and its compatibility with the system containing the iron ion stabilizer, clay stabilizer and discharge aiding agent under 90° C. are determined. The” for “The”

Data set [3] in a line: 4 h corrosion test at 90° C. in 20% hydrochloric acid. To be noted: P110 carbon steel, 1000 ppm inhibitor. Here is the method:
The corrosion inhibition performance of corrosion inhibitors in the embodiments 1 to 4 is determined by a 4 h corrosion test at 90° C. using 20% hydrochloric acid as a corrosive medium and P110 carbon steels. The amount of corrosion inhibitors is 1000 ppm.

In the case of `OC(C[N+]1(Cc2ccc3ccccc3c2)CCOCC1)C[N+](Cc1ccccc1)(Cc1ccccc1)Cc1ccc2ccccc2c1` (stereo not drawn) [Embodiment 1], the “Water solubility and appearance” value in data set [1] is “Soluble colorless”. The Compatibility result in data set [2] was “Uniform and transparent,”. Also, in data set [3], the Corrosion rate worked out at 34.87 gm^−2h^−1 and the Inhibition rate is recorded as 95.18%.

As to `OC(C[N+](Cc1ccccc1)(Cc1ccccc1)Cc1ccccc1)C[N+]1(Cc2ccccc2)C=Cc2ccccc21` (stereo not drawn) [Embodiment 2], in data set [1], the “Water solubility and appearance” value was “Soluble colorless”. Besides, the Compatibility result in data set [2] is “Uniform and transparent,”. In data set [3], this compound displayed a Corrosion rate of 45.79 gm^−2h^−1 and an Inhibition rate of 93.68%.

Consider `CCCCCC[N+](Cc1ccccc1)(Cc1ccccc1)CC(O)C[N+](CCCCCC)(Cc1ccccc1)CC(O)C[N+](CCCCCC)(Cc1ccccc1)Cc1ccccc1` (stereo not drawn) [Embodiment 3], for which the “Water solubility and appearance” value in data set [1] is “Soluble colorless”. In addition, the Compatibility entry in data set [2] was “Uniform and transparent,”. Moreover, in data set [3], the Corrosion rate was 29.86 gm^−2h^−1 and the Inhibition rate amounted to 95.88%.
